Source: patent US12662451B2, “Chemical compounds and uses thereof” (GLAXOSMITHKLINE INTELLECTUAL PROPERTY (NO.4) LIMITED, priority 2023, dated 2026)

Columns and labels:
[1] = tested on: SW48 human colorectal cancer cells (MSI-H cancer cells); experiment: SW48 cell viability, CellTiter-Glo, 120 hours (Example B); settings: Homo sapiens, SW48, 120 h, read-out: SW48 pCC50, SW48 cell viability, 120 hours incubation (converted); Table 2
[2] = biological target: T1, recombinant full-length WRN protein (1-1432) (Homo sapiens, UniProt Q14191); experiment: WRN unwinding activity, fluorogenic 384-well assay (Example A); assay type: biochemical; settings: WRN unwinding activity, 4 hr; Table 2; read-out: 4 hr UNW pIC50 (converted)
T1 construct: recombinant full-length WRN protein (1-1432)
Summary of the method: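 200 pM enzyme (2× stock) preincubated with compound 4 h at ambient temperature, then 200 μM ATP and 12 nM quenched TAMRA-labelled dsDNA (2× stocks) added for 60 min; EDTA-quenched. Buffer 25 mM Tris pH 8.0, 5 mM NaCl, 2 mM MgCl2. Fluorescence at 525/598 nm; pIC50 from four-parameter fit.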

T1 sequence (Q14191 whole entry): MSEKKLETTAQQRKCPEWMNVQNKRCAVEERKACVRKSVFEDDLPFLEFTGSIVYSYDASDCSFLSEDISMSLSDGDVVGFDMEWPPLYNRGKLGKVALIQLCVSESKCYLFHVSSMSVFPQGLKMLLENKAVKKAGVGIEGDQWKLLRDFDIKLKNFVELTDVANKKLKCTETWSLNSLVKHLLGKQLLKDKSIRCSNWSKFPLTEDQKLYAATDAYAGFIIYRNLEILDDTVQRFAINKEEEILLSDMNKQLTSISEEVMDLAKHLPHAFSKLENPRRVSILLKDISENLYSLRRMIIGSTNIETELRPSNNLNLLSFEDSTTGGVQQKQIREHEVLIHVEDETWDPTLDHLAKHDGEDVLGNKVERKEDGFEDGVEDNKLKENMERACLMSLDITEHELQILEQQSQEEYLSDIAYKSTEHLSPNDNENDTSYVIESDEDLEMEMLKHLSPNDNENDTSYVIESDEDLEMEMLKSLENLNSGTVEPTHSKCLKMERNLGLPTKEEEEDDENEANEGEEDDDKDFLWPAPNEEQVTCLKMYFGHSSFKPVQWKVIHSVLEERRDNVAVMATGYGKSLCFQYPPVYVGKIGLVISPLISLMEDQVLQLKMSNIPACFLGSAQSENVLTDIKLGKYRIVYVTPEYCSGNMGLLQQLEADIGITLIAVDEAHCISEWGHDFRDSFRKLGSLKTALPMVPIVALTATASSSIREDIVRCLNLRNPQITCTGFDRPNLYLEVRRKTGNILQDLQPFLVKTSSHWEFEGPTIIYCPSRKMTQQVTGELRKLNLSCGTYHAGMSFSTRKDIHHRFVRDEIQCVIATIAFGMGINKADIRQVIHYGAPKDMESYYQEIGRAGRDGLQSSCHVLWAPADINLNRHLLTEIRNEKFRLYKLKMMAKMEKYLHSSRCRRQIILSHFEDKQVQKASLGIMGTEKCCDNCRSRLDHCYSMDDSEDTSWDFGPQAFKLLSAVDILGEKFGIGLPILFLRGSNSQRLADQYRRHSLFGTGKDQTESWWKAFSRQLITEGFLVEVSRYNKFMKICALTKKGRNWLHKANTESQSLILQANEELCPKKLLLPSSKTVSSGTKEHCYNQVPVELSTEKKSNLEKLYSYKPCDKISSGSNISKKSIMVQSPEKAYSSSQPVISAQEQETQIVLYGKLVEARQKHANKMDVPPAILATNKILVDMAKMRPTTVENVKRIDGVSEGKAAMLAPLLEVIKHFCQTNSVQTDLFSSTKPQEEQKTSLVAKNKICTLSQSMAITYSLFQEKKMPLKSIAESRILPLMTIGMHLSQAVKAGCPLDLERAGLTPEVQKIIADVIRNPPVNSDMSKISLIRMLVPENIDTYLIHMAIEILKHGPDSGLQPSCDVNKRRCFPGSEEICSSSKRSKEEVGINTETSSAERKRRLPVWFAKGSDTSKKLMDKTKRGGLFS

| SMILES | IC50 [2] | CC50 [1] |
| --- | --- | --- |
| O=C(O)[C@@H]1[C@@H](c2ccc(-c3ccco3)cc2)CCC[C@H]1C(=O)Nc1ccc(C(F)(F)F)cc1F [Example 9, (1R,2R,6S)-2-((2-fluoro-4-(trifluoromethyl)phenyl)carbamoyl)-6-(4-(furan-2-yl)phenyl)cyclohexane-1-carboxylic acid] | 794 nM | 25100 nM |
| O=C(O)[C@@H]1[C@@H](c2ccc(-c3ccoc3)cc2)CCC[C@H]1C(=O)Nc1ccc(C(F)(F)F)cc1F [Example 10, (1R,2R,6S)-2-((2-fluoro-4-(trifluoromethyl)phenyl)carbamoyl)-6-(4-(furan-3-yl)phenyl) cyclohexane-1-carboxylic acid] | 100 nM | 12600 nM |
| O=C(O)[C@@H]1[C@@H](c2ccc(-c3ccccc3)cc2)CCC[C@H]1C(=O)Nc1ccc(C(F)(F)F)cc1F [Example 11, (1R,2S,6R)-2-([1,1′-biphenyl]-4-yl)-6-((2-fluoro-4-(trifluoromethyl)phenyl)carbamoyl)cyclohexane-1-carboxylic acid] | 158 nM | 15800 nM |
| O=C(O)[C@@H]1[C@@H](c2ccc(-c3cccc4c3COC4)cc2)CCC[C@H]1C(=O)Nc1ccc(C(F)(F)F)cc1F [Example 15, (1R,2S,6R)-2-(4-(1,3-dihydroisobenzofuran-4-yl)phenyl)-6-((2-fluoro-4-(trifluoromethyl)phenyl)carbamoyl)cyclohexane-1-carboxylic acid] | 158 nM | 20000 nM |
| O=C(O)[C@@H]1[C@@H](c2ccc(-c3ccnnc3)cc2)CCC[C@H]1C(=O)Nc1ccc(C(F)(F)F)cc1F [Example 18, (1R,2R,6S)-2-((2-fluoro-4-(trifluoromethyl)phenyl)carbamoyl)-6-(4-(pyridazin-4-yl)phenyl)cyclohexane-1-carboxylic acid] | 5.01 nM | 12600 nM |
| Nc1ccccc1-c1ccc([C@H]2CCC[C@@H](C(=O)Nc3ccc(C(F)(F)F)cc3F)[C@@H]2C(=O)O)cc1 [Example 24, (1R,2S,6R)-2-(2′-amino-[1,1′-biphenyl]-4-yl)-6-((2-fluoro-4-(trifluoromethyl)phenyl)carbamoyl)cyclohexane-1-carboxylic acid] | 79.4 nM | 15800 nM |
| O=C(O)[C@@H]1[C@@H](c2ccc(-c3ccc(F)nc3)cc2)CCC[C@H]1C(=O)Nc1ccc(C(F)(F)F)cc1F [Example 25, (1R,2R,6S)-2-((2-fluoro-4-(trifluoromethyl)phenyl)carbamoyl)-6-(4-(6-fluoropyridin-3-yl)phenyl)cyclohexane-1-carboxylic acid] | 1.58 nM | 5010 nM |
| O=C(O)[C@@H]1[C@@H](c2ccc(-c3cncc(F)c3)cc2)CCC[C@H]1C(=O)Nc1ccc(C(F)(F)F)cc1F [Example 27, (1R,2R,6S)-2-((2-fluoro-4-(trifluoromethyl)phenyl)carbamoyl)-6-(4-(5-fluoropyridin-3-yl)phenyl)cyclohexane-1-carboxylic acid] | 12.6 nM | 3980 nM |
| O=C(O)[C@@H]1[C@@H](c2ccc(-c3cccs3)cc2)CCC[C@H]1C(=O)Nc1ccc(C(F)(F)F)cc1F [Example 31, (1R,2R,6S)-2-((2-fluoro-4-(trifluoromethyl)phenyl)carbamoyl)-6-(4-(thiophen-2-yl)phenyl)cyclohexane-1-carboxylic acid] | 100 nM | 10000 nM |
| N#Cc1cscc1-c1ccc([C@H]2CCC[C@@H](C(=O)Nc3ccc(C(F)(F)F)cc3F)[C@@H]2C(=O)O)cc1 [Example 32, (1R,2S,6R)-2-(4-(4-cyanothiophen-3-yl)phenyl)-6-((2-fluoro-4-(trifluoromethyl)phenyl)carbamoyl)cyclohe xane-1-carboxylic acid] | 79.4 nM | 10000 nM |
| O=C(O)[C@@H]1[C@@H](c2ccc(-c3cccc4sccc34)cc2)CCC[C@H]1C(=O)Nc1ccc(C(F)(F)F)cc1F [Example 35, (1R,2S,6R)-2-(4-(benzo[b]thiophen-4-yl)phenyl)-6-((2-fluoro-4-(trifluoromethyl)phenyl)carbamoyl) cyclohexane-1-carboxylic acid] | 2000 nM | 6310 nM |
| O=C(O)[C@@H]1[C@@H](c2ccc(-c3nsc4ccccc34)cc2)CCC[C@H]1C(=O)Nc1ccc(C(F)(F)F)cc1F [Example 36, (1R,2S,6R)-2-(4-(benzo[d]isothiazol-3-yl)phenyl)-6-((2-fluoro-4-(trifluoromethyl)phenyl)carbamoyl)cyclohe xane-1-carboxylic acid] | 631 nM | 5010 nM |

Further lines, with some results ahead:

| IC50 [2] | SMILES | CC50 [1] |
| --- | --- | --- |
| 2 nM | O=C(O)[C@@H]1[C@@H](c2ccc(-c3ccc(F)nn3)cc2)CCC[C@H]1C(=O)Nc1ccc(C(F)(F)F)cc1F [Example 37] | 2510 nM |
| 5.01 nM | Cc1nnc(-c2ccc([C@H]3CCC[C@@H](C(=O)Nc4ccc(C(F)(F)F)cc4F)[C@@H]3C(=O)O)cc2)s1 [Example 41, (1R,2R,6S)-2-((2-fluoro-4-(trifluoromethyl)phenyl)carbamoyl)-6-(4-(5-methyl-1,3,4-thiadiazol-2-yl)phenyl)cyclohexane-1-carboxylic acid] | 3980 nM |
| 15.8 nM | O=C(O)[C@@H]1[C@@H](c2ccc(-c3cnoc3)cc2)CCC[C@H]1C(=O)Nc1ccc(C(F)(F)F)cc1F [Example 48, (1R,2R,6S)-2-((2-fluoro-4-(trifluoromethyl)phenyl)carbamoyl)-6-(4-(isoxazol-4-yl)phenyl)cyclohexane-1-carboxylic acid] | 5010 nM |
| 15.8 nM | Cc1oncc1-c1ccc([C@H]2CCC[C@@H](C(=O)Nc3ccc(C(F)(F)F)cc3F)[C@@H]2C(=O)O)cc1 [Example 53, (1R,2R,6S)-2-((2-fluoro-4-(trifluoromethyl)phenyl)carbamoyl)-6-(4-(5-methylisoxazol-4-yl)phenyl)cyclohexane-1-carboxylic acid] | 7940 nM |
| 5.01 nM | N#Cc1ncc(-c2ccc([C@H]3CCC[C@@H](C(=O)Nc4ccc(C(F)(F)F)cc4F)[C@@H]3C(=O)O)cc2)cn1 [Example 54, (1R,2S,6R)-2-(4-(2-cyanopyrimidin-5-yl)phenyl)-6-((2-fluoro-4-(trifluoromethyl)phenyl)carbamoyl)cyclohexane-1-carboxylic acid] | 7940 nM |
| 2.51 nM | N#Cc1ccc(-c2ccc([C@H]3CCC[C@@H](C(=O)Nc4ccc(C(F)(F)F)cc4F)[C@@H]3C(=O)O)cc2)nn1 [Example 55, (1R,2S,6R)-2-(4-(6-cyanopyridazin-3-yl)phenyl)-6-((2-fluoro-4-(trifluoromethyl)phenyl)carbamoyl) cyclohexane-1-carboxylic acid] | 10000 nM |
| 31.6 nM | O=C(O)[C@@H]1[C@@H](c2ccc(C3=CCS(=O)(=O)C3)cc2)CCC[C@H]1C(=O)Nc1ccc(C(F)(F)F)cc1F [Example 58, (1R,2S,6R)-2-(4-(1,1-dioxido-2,5-dihydrothiophen-3-yl)phenyl)-6-((2-fluoro-4-(trifluoromethyl)phenyl)carbamoyl) cyclohexane-1-carboxylic acid] | 15800 nM |
| 2.51 nM | CN(c1ccc([C@H]2CCC[C@@H](C(=O)Nc3ccc(C(F)(F)F)cc3F)[C@@H]2C(=O)O)cc1)S(=O)(=O)c1ccc2occc2c1 [Example 93, (1R,2R,6S)-2-((2-fluoro-4-(trifluoromethyl)phenyl)carbamoyl)-6-(4-(N-methylbenzofuran-5-sulfonamido)phenyl)cyclohexane-1-carboxylic acid] | 2510 nM |
